According to the supplement of paper PMC10307832:

How the values were obtained:
Test in all cases: relative viability (nuclei count vs DMSO), 5 days (fraction); higher = more cells survive
TPCA-1 + Olaparib = compound: C1=CC(=CC=C1C2=CC(=C(S2)NC(=O)N)C(=O)N)F [TPCA-1] + O=C(c1cc(Cc2n[nH]c(=O)c3ccccc23)ccc1F)N1CCN(C(=O)C2CC2)CC1 [Olaparib] (partner 8 µM)
Summary of the method: (§1)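 Relative viability is defined as nuclei in treated wells over nuclei in vehicle wells. Duplicate plates were run and medians reported. Lung cancer cell lines in 1536-well plates were dosed by pin tool one day after seeding, with one drug or with a fixed anchor-drug dose plus five library-drug doses (not always all listed) in √10 steps, and nuclei were counted after 5 days.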

Lestaurtinib + Olaparib = compound: C[C@]12O[C@H](C[C@]1(O)CO)n1c3ccccc3c3c4c(c5c6ccccc6n2c5c31)CNC4=O [Lestaurtinib] + O=C(c1cc(Cc2n[nH]c(=O)c3ccccc23)ccc1F)N1CCN(C(=O)C2CC2)CC1 [Olaparib] (partner 8 µM)
Summary of the method: as §1

TPCA-1 + OSI-027 = compound: C1=CC(=CC=C1C2=CC(=C(S2)NC(=O)N)C(=O)N)F [TPCA-1] + COc1cccc2cc(-c3nc([C@H]4CC[C@H](C(=O)O)CC4)n4ncnc(N)c34)[nH]c12 [OSI-027] (partner 0.5 µM)
Summary of the method: as §1

[1] = compound: C[C@]12O[C@H](C[C@]1(O)CO)n1c3ccccc3c3c4c(c5c6ccccc6n2c5c31)CNC4=O [Lestaurtinib] + CS(=O)(=O)N1CCN(Cc2cc3nc(-c4cccc5[nH]ncc45)nc(N4CCOCC4)c3s2)CC1 [Pictilisib] (partner 1 µM)
Summary of the method: as §1

NCI-H1993
relative viability (TPCA-1 + Olaparib; first compound 0.04 µM): 1.23 | relative viability (TPCA-1 + Olaparib; first compound 0.1265 µM): 1.03 | relative viability (TPCA-1 + Olaparib; first compound 0.4 µM): 0.958 | relative viability (TPCA-1 + Olaparib; first compound 1.265 µM): 1.07 | relative viability (TPCA-1 + Olaparib; first compound 4 µM): 0.99 | relative viability (Lestaurtinib + Olaparib; first compound 0.005 µM): 0.76 | relative viability (Lestaurtinib + Olaparib; first compound 0.01581 µM): 1.16 | relative viability (Lestaurtinib + Olaparib; first compound 0.05 µM): 1.14 | relative viability (Lestaurtinib + Olaparib; first compound 0.1581 µM): 1.04 | relative viability (Lestaurtinib + Olaparib; first compound 0.5 µM): 0.463 | relative viability (TPCA-1 + OSI-027; first compound 0.04 µM): 0.544 | relative viability (TPCA-1 + OSI-027; first compound 0.1265 µM): 0.524 | relative viability (TPCA-1 + OSI-027; first compound 0.4 µM): 0.521 | relative viability (TPCA-1 + OSI-027; first compound 1.265 µM): 0.536 | relative viability (TPCA-1 + OSI-027; first compound 4 µM): 0.556 | relative viability ([1]; first compound 0.005 µM): 0.802 | relative viability ([1]; first compound 0.01581 µM): 0.724 | relative viability ([1]; first compound 0.05 µM): 0.69 | relative viability ([1]; first compound 0.1581 µM): 0.716 | relative viability ([1]; first compound 0.5 µM): 0.663

HCC-827
relative viability (TPCA-1 + Olaparib; first compound 0.04 µM): 0.678 | relative viability (TPCA-1 + Olaparib; first compound 0.1265 µM): 0.62 | relative viability (TPCA-1 + Olaparib; first compound 0.4 µM): 0.772 | relative viability (TPCA-1 + Olaparib; first compound 1.265 µM): 0.609 | relative viability (TPCA-1 + Olaparib; first compound 4 µM): 0.367 | relative viability (Lestaurtinib + Olaparib; first compound 0.005 µM): 0.585 | relative viability (Lestaurtinib + Olaparib; first compound 0.01581 µM): 0.654 | relative viability (Lestaurtinib + Olaparib; first compound 0.05 µM): 0.665 | relative viability (Lestaurtinib + Olaparib; first compound 0.1581 µM): 0.508 | relative viability (Lestaurtinib + Olaparib; first compound 0.5 µM): 0.484 | relative viability (TPCA-1 + OSI-027; first compound 0.04 µM): 0.793 | relative viability (TPCA-1 + OSI-027; first compound 0.1265 µM): 0.782 | relative viability (TPCA-1 + OSI-027; first compound 0.4 µM): 0.729 | relative viability (TPCA-1 + OSI-027; first compound 1.265 µM): 0.706 | relative viability (TPCA-1 + OSI-027; first compound 4 µM): 0.503 | relative viability ([1]; first compound 0.005 µM): 1.13 | relative viability ([1]; first compound 0.01581 µM): 0.8 | relative viability ([1]; first compound 0.05 µM): 0.896 | relative viability ([1]; first compound 0.1581 µM): 0.833 | relative viability ([1]; first compound 0.5 µM): 0.388

NCI-H650
relative viability (TPCA-1 + Olaparib; first compound 0.04 µM): 0.4 | relative viability (TPCA-1 + Olaparib; first compound 0.1265 µM): 0.323 | relative viability (TPCA-1 + Olaparib; first compound 0.4 µM): 0.408 | relative viability (TPCA-1 + Olaparib; first compound 1.265 µM): 0.385 | relative viability (TPCA-1 + Olaparib; first compound 4 µM): 0.354 | relative viability (Lestaurtinib + Olaparib; first compound 0.005 µM): 0.43 | relative viability (Lestaurtinib + Olaparib; first compound 0.01581 µM): 0.413 | relative viability (Lestaurtinib + Olaparib; first compound 0.05 µM): 0.382 | relative viability (Lestaurtinib + Olaparib; first compound 0.1581 µM): 0.319 | relative viability (Lestaurtinib + Olaparib; first compound 0.5 µM): 0.28 | relative viability (TPCA-1 + OSI-027; first compound 0.04 µM): 0.533 | relative viability (TPCA-1 + OSI-027; first compound 0.1265 µM): 0.498 | relative viability (TPCA-1 + OSI-027; first compound 0.4 µM): 0.617 | relative viability (TPCA-1 + OSI-027; first compound 1.265 µM): 0.286 | relative viability (TPCA-1 + OSI-027; first compound 4 µM): 0.374 | relative viability ([1]; first compound 0.005 µM): 0.816 | relative viability ([1]; first compound 0.01581 µM): 0.818 | relative viability ([1]; first compound 0.05 µM): 0.63 | relative viability ([1]; first compound 0.1581 µM): 0.399 | relative viability ([1]; first compound 0.5 µM): 0.332

CAL-12T
relative viability (TPCA-1 + Olaparib; first compound 0.04 µM): 0.621 | relative viability (TPCA-1 + Olaparib; first compound 0.1265 µM): 0.734 | relative viability (TPCA-1 + Olaparib; first compound 0.4 µM): 0.732 | relative viability (TPCA-1 + Olaparib; first compound 1.265 µM): 0.638 | relative viability (TPCA-1 + Olaparib; first compound 4 µM): 0.753 | relative viability (Lestaurtinib + Olaparib; first compound 0.005 µM): 0.837 | relative viability (Lestaurtinib + Olaparib; first compound 0.01581 µM): 0.767 | relative viability (Lestaurtinib + Olaparib; first compound 0.05 µM): 0.877 | relative viability (Lestaurtinib + Olaparib; first compound 0.1581 µM): 0.802 | relative viability (Lestaurtinib + Olaparib; first compound 0.5 µM): 0.344 | relative viability (TPCA-1 + OSI-027; first compound 0.04 µM): 0.678 | relative viability (TPCA-1 + OSI-027; first compound 0.1265 µM): 0.614 | relative viability (TPCA-1 + OSI-027; first compound 0.4 µM): 0.664 | relative viability (TPCA-1 + OSI-027; first compound 1.265 µM): 0.523 | relative viability (TPCA-1 + OSI-027; first compound 4 µM): 0.185 | relative viability ([1]; first compound 0.005 µM): 0.392 | relative viability ([1]; first compound 0.01581 µM): 0.716 | relative viability ([1]; first compound 0.05 µM): 0.388 | relative viability ([1]; first compound 0.1581 µM): 0.413 | relative viability ([1]; first compound 0.5 µM): 0.292

NCI-H838
relative viability (TPCA-1 + Olaparib; first compound 0.04 µM): 0.867 | relative viability (TPCA-1 + Olaparib; first compound 0.1265 µM): 0.718 | relative viability (TPCA-1 + Olaparib; first compound 0.4 µM): 0.826 | relative viability (TPCA-1 + Olaparib; first compound 1.265 µM): 0.557 | relative viability (TPCA-1 + Olaparib; first compound 4 µM): 0.406 | relative viability (Lestaurtinib + Olaparib; first compound 0.005 µM): 0.911 | relative viability (Lestaurtinib + Olaparib; first compound 0.01581 µM): 0.796 | relative viability (Lestaurtinib + Olaparib; first compound 0.05 µM): 0.549 | relative viability (Lestaurtinib + Olaparib; first compound 0.1581 µM): 0.348 | relative viability (Lestaurtinib + Olaparib; first compound 0.5 µM): 0.162 | relative viability (TPCA-1 + OSI-027; first compound 0.04 µM): 0.427 | relative viability (TPCA-1 + OSI-027; first compound 0.1265 µM): 0.353 | relative viability (TPCA-1 + OSI-027; first compound 0.4 µM): 0.391 | relative viability (TPCA-1 + OSI-027; first compound 1.265 µM): 0.389 | relative viability (TPCA-1 + OSI-027; first compound 4 µM): 0.299 | relative viability ([1]; first compound 0.005 µM): 0.492 | relative viability ([1]; first compound 0.01581 µM): 0.479 | relative viability ([1]; first compound 0.05 µM): 0.378 | relative viability ([1]; first compound 0.1581 µM): 0.309 | relative viability ([1]; first compound 0.5 µM): 0.169

NCI-H2228
relative viability (TPCA-1 + Olaparib; first compound 0.04 µM): 0.731 | relative viability (TPCA-1 + Olaparib; first compound 0.1265 µM): 0.624 | relative viability (TPCA-1 + Olaparib; first compound 0.4 µM): 0.789 | relative viability (TPCA-1 + Olaparib; first compound 1.265 µM): 0.56 | relative viability (TPCA-1 + Olaparib; first compound 4 µM): 0.432 | relative viability (Lestaurtinib + Olaparib; first compound 0.005 µM): 0.644 | relative viability (Lestaurtinib + Olaparib; first compound 0.01581 µM): 0.455 | relative viability (Lestaurtinib + Olaparib; first compound 0.05 µM): 0.318 | relative viability (Lestaurtinib + Olaparib; first compound 0.1581 µM): 0.432 | relative viability (Lestaurtinib + Olaparib; first compound 0.5 µM): 0.137 | relative viability (TPCA-1 + OSI-027; first compound 0.04 µM): 0.774 | relative viability (TPCA-1 + OSI-027; first compound 0.1265 µM): 0.503 | relative viability (TPCA-1 + OSI-027; first compound 0.4 µM): 0.519 | relative viability (TPCA-1 + OSI-027; first compound 1.265 µM): 0.633 | relative viability (TPCA-1 + OSI-027; first compound 4 µM): 0.283 | relative viability ([1]; first compound 0.005 µM): 0.461 | relative viability ([1]; first compound 0.01581 µM): 0.551 | relative viability ([1]; first compound 0.05 µM): 0.332 | relative viability ([1]; first compound 0.1581 µM): 0.325 | relative viability ([1]; first compound 0.5 µM): 0.198

RERF-LC-KJ
relative viability (TPCA-1 + Olaparib; first compound 0.04 µM): 0.952 | relative viability (TPCA-1 + Olaparib; first compound 0.1265 µM): 0.857 | relative viability (TPCA-1 + Olaparib; first compound 0.4 µM): 0.884 | relative viability (TPCA-1 + Olaparib; first compound 1.265 µM): 0.911 | relative viability (TPCA-1 + Olaparib; first compound 4 µM): 0.78 | relative viability (Lestaurtinib + Olaparib; first compound 0.005 µM): 1.13 | relative viability (Lestaurtinib + Olaparib; first compound 0.01581 µM): 1.07 | relative viability (Lestaurtinib + Olaparib; first compound 0.05 µM): 0.961 | relative viability (Lestaurtinib + Olaparib; first compound 0.1581 µM): 0.952 | relative viability (Lestaurtinib + Olaparib; first compound 0.5 µM): 0.399 | relative viability (TPCA-1 + OSI-027; first compound 0.04 µM): 0.674 | relative viability (TPCA-1 + OSI-027; first compound 0.1265 µM): 0.489 | relative viability (TPCA-1 + OSI-027; first compound 0.4 µM): 0.565 | relative viability (TPCA-1 + OSI-027; first compound 1.265 µM): 0.532 | relative viability (TPCA-1 + OSI-027; first compound 4 µM): 0.485 | relative viability ([1]; first compound 0.005 µM): 0.593 | relative viability ([1]; first compound 0.01581 µM): 0.235 | relative viability ([1]; first compound 0.05 µM): 0.458 | relative viability ([1]; first compound 0.1581 µM): 0.387 | relative viability ([1]; first compound 0.5 µM): 0.243

NCI-H661
relative viability (TPCA-1 + Olaparib; first compound 0.04 µM): 0.751 | relative viability (TPCA-1 + Olaparib; first compound 0.1265 µM): 0.748 | relative viability (TPCA-1 + Olaparib; first compound 0.4 µM): 0.77 | relative viability (TPCA-1 + Olaparib; first compound 1.265 µM): 0.721 | relative viability (TPCA-1 + Olaparib; first compound 4 µM): 0.758 | relative viability (Lestaurtinib + Olaparib; first compound 0.005 µM): 0.813 | relative viability (Lestaurtinib + Olaparib; first compound 0.01581 µM): 0.754 | relative viability (Lestaurtinib + Olaparib; first compound 0.05 µM): 0.684 | relative viability (Lestaurtinib + Olaparib; first compound 0.1581 µM): 0.735 | relative viability (Lestaurtinib + Olaparib; first compound 0.5 µM): 0.419 | relative viability (TPCA-1 + OSI-027; first compound 0.04 µM): 0.734 | relative viability (TPCA-1 + OSI-027; first compound 0.1265 µM): 0.665 | relative viability (TPCA-1 + OSI-027; first compound 0.4 µM): 0.749 | relative viability (TPCA-1 + OSI-027; first compound 1.265 µM): 0.607 | relative viability (TPCA-1 + OSI-027; first compound 4 µM): 0.39 | relative viability ([1]; first compound 0.005 µM): 0.35 | relative viability ([1]; first compound 0.01581 µM): 0.461 | relative viability ([1]; first compound 0.05 µM): 0.411 | relative viability ([1]; first compound 0.1581 µM): 0.352 | relative viability ([1]; first compound 0.5 µM): 0.336
